Experimental data taken from patent US12448365B2, “Aryl aminopyrimidines as dual MerTK and TYRO3 inhibitors and methods thereof” (The University of North Carolina at Chapel Hill, priority 2019, dated 2025).
Like-named read-outs stand apart in the source and are kept apart here.

Key:
Mer = Mer (Homo sapiens (Human), UniProt Q12866); assay: Microfluidic Capillary Electrophoresis (MCE) kinase activity assay, Mer; type: biochemical
Tyro3 = Tyro3 (Homo sapiens (Human), UniProt Q06418); assay: Microfluidic Capillary Electrophoresis (MCE) kinase activity assay, Tyro3; type: biochemical
Tyro3, sequence (Q06418 41-890): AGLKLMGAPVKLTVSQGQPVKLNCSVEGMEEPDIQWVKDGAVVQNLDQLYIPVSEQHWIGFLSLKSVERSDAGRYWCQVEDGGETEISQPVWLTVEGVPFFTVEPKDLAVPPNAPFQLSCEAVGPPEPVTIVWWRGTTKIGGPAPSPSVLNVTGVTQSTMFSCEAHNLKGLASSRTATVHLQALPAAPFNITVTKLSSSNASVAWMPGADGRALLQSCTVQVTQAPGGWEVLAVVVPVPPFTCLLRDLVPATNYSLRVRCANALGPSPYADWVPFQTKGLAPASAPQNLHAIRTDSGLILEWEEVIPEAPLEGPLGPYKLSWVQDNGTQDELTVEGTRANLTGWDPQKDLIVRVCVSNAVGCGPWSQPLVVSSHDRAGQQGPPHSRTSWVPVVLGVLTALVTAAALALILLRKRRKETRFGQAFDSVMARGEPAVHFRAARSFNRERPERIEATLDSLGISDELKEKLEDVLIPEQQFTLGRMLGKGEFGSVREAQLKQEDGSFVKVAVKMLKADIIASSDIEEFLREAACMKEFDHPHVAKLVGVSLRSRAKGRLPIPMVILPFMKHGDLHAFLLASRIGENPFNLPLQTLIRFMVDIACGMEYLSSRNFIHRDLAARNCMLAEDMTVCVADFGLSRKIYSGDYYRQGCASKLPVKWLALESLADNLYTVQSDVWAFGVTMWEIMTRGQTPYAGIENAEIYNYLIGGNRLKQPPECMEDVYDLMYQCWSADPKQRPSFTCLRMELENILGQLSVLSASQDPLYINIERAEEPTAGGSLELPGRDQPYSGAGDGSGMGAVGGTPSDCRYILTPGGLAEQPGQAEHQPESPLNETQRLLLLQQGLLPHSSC

[1] = MCE assay, Mer 2.0 nM, ATP 5.0 uM (at Km), 1.0 μM fluorescent substrate, 180 min incubation
[2] = MCE assay, Tyro 10 nM, ATP 21 uM (at Km), 1.0 μM fluorescent substrate, 180 min incubation

Mer, sequence (Q12866 21-999): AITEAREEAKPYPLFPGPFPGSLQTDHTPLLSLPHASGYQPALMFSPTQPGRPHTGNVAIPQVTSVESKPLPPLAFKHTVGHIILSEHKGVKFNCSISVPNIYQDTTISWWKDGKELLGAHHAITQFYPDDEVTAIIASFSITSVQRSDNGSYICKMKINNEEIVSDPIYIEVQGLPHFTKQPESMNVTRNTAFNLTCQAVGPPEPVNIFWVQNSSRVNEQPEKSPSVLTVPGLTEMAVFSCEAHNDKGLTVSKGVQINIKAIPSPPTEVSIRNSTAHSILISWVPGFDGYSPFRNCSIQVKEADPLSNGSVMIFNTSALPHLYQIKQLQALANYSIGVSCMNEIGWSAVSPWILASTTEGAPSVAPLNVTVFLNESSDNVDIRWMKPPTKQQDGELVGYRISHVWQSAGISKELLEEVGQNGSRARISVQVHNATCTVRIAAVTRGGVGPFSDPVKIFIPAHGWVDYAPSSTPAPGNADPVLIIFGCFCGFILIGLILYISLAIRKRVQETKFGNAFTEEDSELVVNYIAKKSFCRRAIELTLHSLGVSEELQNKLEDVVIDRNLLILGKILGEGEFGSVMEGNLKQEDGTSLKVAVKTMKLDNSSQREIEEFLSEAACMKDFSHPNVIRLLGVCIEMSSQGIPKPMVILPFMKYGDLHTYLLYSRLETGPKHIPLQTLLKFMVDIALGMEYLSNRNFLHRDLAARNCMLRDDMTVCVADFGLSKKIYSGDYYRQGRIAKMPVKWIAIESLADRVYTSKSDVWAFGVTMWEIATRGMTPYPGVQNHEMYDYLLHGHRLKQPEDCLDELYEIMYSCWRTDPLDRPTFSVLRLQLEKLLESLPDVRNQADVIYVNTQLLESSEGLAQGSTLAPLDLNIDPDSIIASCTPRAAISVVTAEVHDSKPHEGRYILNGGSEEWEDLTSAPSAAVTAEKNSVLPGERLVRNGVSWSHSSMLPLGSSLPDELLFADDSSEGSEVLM

Structure (SMILES)	IC50 (Mer; [1]) [µM]	IC50 (Tyro3) [µM]	IC50 (Mer) [µM]	IC50 (Tyro3; [2]) [µM]
O[C@H]1CC[C@H](Nc2nc(Nc3ccnc(Cl)c3)ncc2C2CCNCC2)CC1 [Compound 9]	–	0.01 to 0.1	0.01 to 0.1	–
COc1cccc(Nc2ncc(C3CCN(C(=O)C4CCCC4)CC3)c(N[C@H]3CC[C@H](O)CC3)n2)c1 [Compound 1, cyclopentyl(4-(4-((trans-4-hydroxycyclohexyl)amino)-2-((3-methoxyphenyl)amino)pyrimidin-5-yl)piperidin-1-yl)methanone]	–	0.1 to 1	0.1 to 1	–
COc1cccc(Nc2ncc(C3CCN(CC4CCCC4)CC3)c(N[C@H]3CC[C@H](O)CC3)n2)c1 [Compound 4, trans-4-((5-(1-(cyclopentylmethyl)piperidin-4-yl)-2-((3-methoxyphenyl)amino)pyrimidin-4-yl)amino)cyclohexan-1-ol]	< 0.01	0.01 to 0.1	–	–
O[C@H]1CC[C@H](Nc2nc(Nc3ccnc(C(F)(F)F)c3)ncc2C2CCN(C3CCCC3)CC2)CC1 [Compound 13]	–	0.01 to 0.1	< 0.01	–
O[C@H]1CC[C@H](Nc2nc(Nc3ccnc(Cl)c3)ncc2C2CCN(C3CCCC3)CC2)CC1 [Compound 12]	< 0.01	–	–	< 0.01
COc1cc(Nc2ncc(C3CCN(C(=O)OC(C)(C)C)CC3)c(N[C@H]3CC[C@H](O)CC3)n2)ccn1 [Compound 2]	–	0.01 to 0.1	0.01 to 0.1	–
CC(F)(F)c1cc(Nc2ncc(C3CCN(CC4CCCC4)CC3)c(N[C@H]3CC[C@H](O)CC3)n2)ccn1 [Compound 18]	< 0.01	–	–	< 0.01
Cc1cc(Nc2ncc(C3CCNCC3)c(N[C@H]3CC[C@H](O)CC3)n2)ccn1 [Compound 8]	–	0.01 to 0.1	0.01 to 0.1	–
COc1cc(Nc2ncc(C3CCNCC3)c(N[C@H]3CC[C@H](NC(C)=O)CC3)n2)ccn1 [Compound 21]	–	0.01 to 0.1	0.01 to 0.1	–
O[C@H]1CC[C@H](Nc2nc(Nc3ccnc(Cl)c3)ncc2C2CCN(CC3CCCC3)CC2)CC1 [Compound 16]	< 0.01	–	–	< 0.01
NC(=O)c1cc(Nc2ncc(C3CCN(CC4CCCC4)CC3)c(N[C@H]3CC[C@H](O)CC3)n2)ccn1 [Compound 20]	< 0.01	0.01 to 0.1	–	–
NC(=O)c1cc(Nc2ncc(C3CCN(C4CCCC4)CC3)c(N[C@H]3CC[C@H](O)CC3)n2)ccn1 [Compound 14]	–	0.01 to 0.1	0.01 to 0.1	–
COc1cc(Nc2ncc(C3CCN(CC4CCCC4)CC3)c(N[C@H]3CC[C@H](O)CC3)n2)ccn1 [Compound 5]	< 0.01	0.01 to 0.1	–	–
Cc1cc(Nc2ncc(C3CCN(CC4CCCC4)CC3)c(N[C@H]3CC[C@H](O)CC3)n2)ccn1 [Compound 15]	< 0.01	0.01 to 0.1	–	–
Cc1cc(Nc2ncc(C3CCN(C4CCCC4)CC3)c(N[C@H]3CC[C@H](O)CC3)n2)ccn1 [Compound 11, trans-4-((5-(1-cyclopentylpiperidin-4-yl)-2-((2-methylpyridin-4-yl)amino)pyrimidin-4-yl)amino)cyclohexan-1-ol]	< 0.01	0.01 to 0.1	–	–
O[C@H]1CC[C@H](Nc2nc(Nc3ccnc(C(F)(F)F)c3)ncc2C2CCN(CC3CCCC3)CC2)CC1 [Compound 17]	–	0.01 to 0.1	0.01 to 0.1	–
COc1cc(Nc2ncc(C3CCN(C)CC3)c(N[C@H]3CC[C@H](O)CC3)n2)ccn1 [Compound 6]	–	0.01 to 0.1	0.01 to 0.1	–
Cc1cc(Nc2ncc(C3CCNCC3)c(N[C@H]3CC[C@H](O)CC3)n2)cc(C)n1 [Compound 10]	–	0.01 to 0.1	1 to 30	–
Cc1cc(Nc2ncc(C3CCN(CC4CCCC4)CC3)c(N[C@H]3CC[C@H](O)CC3)n2)cc(C)n1 [Compound 19]	–	0.01 to 0.1	0.1 to 1	–

Continued, values first:

IC50 (Mer; [1]) [µM]	IC50 (Tyro3) [µM]	IC50 (Mer) [µM]	IC50 (Tyro3; [2]) [µM]	Structure (SMILES)
< 0.01	0.01 to 0.1	–	–	O[C@H]1CC[C@H](Nc2nc(Nc3ccnc(F)c3)ncc2C2CCNCC2)CC1 [Compound 37]
–	1 to 30	0.1 to 1	–	COc1cc(Nc2ncc(C3CCN(C4CCCC4)CC3)c(N[C@H]3CC[C@H](NC(C)=O)CC3)n2)ccn1 [Compound 22]
–	1 to 30	0.1 to 1	–	O[C@H]1CC[C@H](Nc2nc(Nc3ccnc(N4CCCC4)c3)ncc2C2CCNCC2)CC1 [Compound 43]
–	0.01 to 0.1	0.01 to 0.1	–	O[C@H]1CC[C@H](Nc2nc(Nc3ccnc(Cl)c3)ncc2C2CCN(c3ccccc3)CC2)CC1 [Compound 47, trans-4-((2-((2-Chloropyridin-4-yl)amino)-5-(1-phenylpiperidin-4-yl)pyrimidin-4-yl)amino)cyclohexan-1-ol]
–	0.1 to 1	0.01 to 0.1	–	CN1CCN(c2cc(Nc3ncc(C4CCNCC4)c(N[C@H]4CC[C@H](O)CC4)n3)ccn2)CC1 [Compound 44]
–	1 to 30	1 to 30	–	O[C@H]1CC[C@H](Nc2nc(Nc3ccnc(N4CCCCC4)c3)ncc2C2CCNCC2)CC1 [Compound 45]
< 0.01	–	–	< 0.01	CC1(C)CC(N2CCC(c3cnc(Nc4ccnc(Cl)c4)nc3N[C@H]3CC[C@H](O)CC3)CC2)C1 [Compound 48]
< 0.01	0.01 to 0.1	–	–	N#Cc1cc(Nc2ncc(C3CCN(CC4CCC(F)(F)CC4)CC3)c(N[C@H]3CC[C@H](O)CC3)n2)ccn1 [Compound 56]
< 0.01	0.01 to 0.1	–	–	O[C@H]1CC[C@H](Nc2nc(Nc3ccnc(Cl)c3)ncc2C2CCN(CC3CCOCC3)CC2)CC1 [Compound 34]
< 0.01	0.01 to 0.1	–	–	Cc1cc(CN2CCC(c3cnc(Nc4ccnc(Cl)c4)nc3N[C@H]3CC[C@H](O)CC3)CC2)no1 [Compound 31]
< 0.01	–	–	< 0.01	O[C@H]1CC[C@H](Nc2nc(Nc3ccnc(Cl)c3)ncc2C2CCN(CC3CCC(F)(F)CC3)CC2)CC1 [Compound 30]
< 0.01	0.01 to 0.1	–	–	N#Cc1cc(Nc2ncc(C3CCN(CC4CCCC4)CC3)c(N[C@H]3CC[C@H](O)CC3)n2)ccn1 [Compound 55]
–	0.01 to 0.1	0.01 to 0.1	–	COc1cc(Nc2ncc(C3CCN(C(=O)C4CCCC4)CC3)c(N[C@H]3CC[C@H](O)CC3)n2)ccn1 [Compound 26, Cyclopentyl(4-(4-((trans-4-hydroxycyclohexyl)amino)-2-((2-methoxypyridin-4-yl)amino)pyrimidin-5-yl)piperidin-1-yl)methanone]
< 0.01	–	–	< 0.01	O[C@H]1CC[C@H](Nc2nc(Nc3ccnc(Cl)c3)ncc2C2CCN(C3CC(C4CC4)C3)CC2)CC1 (stereo partly drawn) [Compound 49]
< 0.01	–	–	< 0.01	O[C@H]1CC[C@H](Nc2nc(Nc3ccnc(Cl)c3)ncc2C2CCN(CC3CC3)CC2)CC1 [Compound 46]
–	0.01 to 0.1	0.01 to 0.1	–	CN1CCC(CN2CCC(c3cnc(Nc4ccnc(Cl)c4)nc3N[C@H]3CC[C@H](O)CC3)CC2)CC1 [Compound 29]
< 0.01	–	–	< 0.01	O[C@H]1CC[C@H](Nc2nc(Nc3ccnc(Cl)c3)ncc2C2CCN(CC3CCC3)CC2)CC1 [Compound 33]
< 0.01	0.01 to 0.1	–	–	O[C@H]1CC[C@H](Nc2nc(Nc3ccnc(Cl)c3)ncc2C2CCN(Cc3ccccc3)CC2)CC1 [Compound 32]
< 0.01	0.01 to 0.1	–	–	COc1cc(Nc2ncc(C3CCN(C4CCCC4)CC3)c(N[C@H]3CC[C@H](O)CC3)n2)ccn1 [Compound 25]
< 0.01	0.01 to 0.1	–	–	COc1cc(Nc2ncc(C3CCN(C4CCCC4)CC3)c(N[C@H]3CC[C@H](N)CC3)n2)ccn1 [Compound 23]
–	0.01 to 0.1	0.01 to 0.1	–	O[C@H]1CC[C@H](Nc2nc(Nc3ccnc(Cl)c3)ncc2C2CCN(CC3COC3)CC2)CC1 [Compound 28]
–	0.1 to 1	0.01 to 0.1	–	COc1cc(Nc2ncc(C3CCN(C4CCCC4)CC3)c(N[C@H]3CC[C@H](N(C)C)CC3)n2)ccn1 [Compound 24]
–	0.01 to 0.1	0.01 to 0.1	–	O[C@H]1CC[C@H](Nc2nc(Nc3ccnc(C4CC4)c3)ncc2C2CCNCC2)CC1 [Compound 41]
